Results as given in patent US20060069132A1, “Azolecarboxamide herbicides” (priority 2004, published 2006).

Assays:
barnyardgrass [1] = assay: Test B pre-/postemergence herbicide test; format: in vivo, Echinochloa crus-galli; settings: for Plant response rating, Barnyardgrass: preemergence; for Barnyardgrass plant response rating: postemergence, visual rating, scale 0 (no effect) to 100 (complete control)
Procedure, shortened: (§1)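 Species tested were Echinochloa crus-galli, Ipomoea coccinea, Xanthium strumarium and Oryza sativa, treated both before emergence and at the 1- to 4-leaf stage; rice and barnyardgrass were also tested under flooding at 2 leaves. Greenhouse incubation lasted 13–15 days before visual 0–100 scoring.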

Surinam grass = assay: Test B pre-/postemergence herbicide test; format: in vivo, Urochloa decumbens; settings: for Plant response rating, Surinam Grass: preemergence; for Surinam Grass plant response rating: postemergence, visual rating, scale 0 (no effect) to 100 (complete control)
Procedure, shortened: (§2)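 Plants compared with untreated controls 13–15 days post-treatment and given a visual 0–100 injury score. Applications: preemergence to seeds; postemergence at 1- to 4-leaf (2–18 cm); paddy species flooded, 2-leaf stage. Vehicle non-phytotoxic, surfactant included.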

cocklebur = assay: Test B pre-/postemergence herbicide test; format: in vivo, Xanthium strumarium; settings: for Plant response rating, Cocklebur: preemergence; for Cocklebur plant response rating: postemergence, visual rating, scale 0 (no effect) to 100 (complete control)
Procedure, shortened: as §1

corn = assay: Test B pre-/postemergence herbicide test; format: in vivo, Zea mays; settings: for Plant response rating, Corn: preemergence; for Corn plant response rating: postemergence, visual rating, scale 0 (no effect) to 100 (complete control)
Procedure, shortened: as §2

large crabgrass = assay: Test B pre-/postemergence herbicide test; format: in vivo, Digitaria sanguinalis; settings: for Plant response rating, Crabgrass, Large: preemergence; for Crabgrass, Large plant response rating: postemergence, visual rating, scale 0 (no effect) to 100 (complete control)
Procedure, shortened: as §2

giant foxtail = assay: Test B pre-/postemergence herbicide test; format: in vivo, Setaria faberi; settings: for Plant response rating, Foxtail, Giant: preemergence; for Foxtail, Giant plant response rating: postemergence, visual rating, scale 0 (no effect) to 100 (complete control)
Procedure, shortened: as §2

lambsquarters = assay: Test B pre-/postemergence herbicide test; format: in vivo, Chenopodium album; settings: for Plant response rating, Lambsquarters: preemergence; for Lambsquarters plant response rating: postemergence, visual rating, scale 0 (no effect) to 100 (complete control)
Procedure, shortened: as §2

morningglory = assay: Test B pre-/postemergence herbicide test; format: in vivo, Ipomoea coccinea; settings: for Plant response rating, Morningglory: preemergence; for Morningglory plant response rating: postemergence, visual rating, scale 0 (no effect) to 100 (complete control)
Procedure, shortened: as §1

pigweed = assay: Test B pre-/postemergence herbicide test; format: in vivo, Amaranthus retroflexus; settings: for Plant response rating, Pigweed: preemergence; for Pigweed plant response rating: postemergence, visual rating, scale 0 (no effect) to 100 (complete control)
Procedure, shortened: as §2

rice [2] = assay: Test B pre-/postemergence herbicide test; format: in vivo, Oryza sativa; settings: preemergence
Procedure, shortened: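 Greenhouse pot assay with simultaneous preemergence (treated seed) and postemergence (2–18 cm seedlings) applications of surfactant-containing, non-phytotoxic solvent formulations. Response scored visually 13–15 days later on a 0–100 scale, 100 meaning complete control.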

velvetleaf = assay: Test B pre-/postemergence herbicide test; format: in vivo, Abutilon theophrasti; settings: for Plant response rating, Velvetleaf: preemergence; for Velvetleaf plant response rating: postemergence, visual rating, scale 0 (no effect) to 100 (complete control)
Procedure, shortened: as §2

blackgrass = assay: Test B postemergence herbicide test; format: in vivo, Alopecurus myosuroides; settings: postemergence, visual rating, scale 0 (no effect) to 100 (complete control)
Procedure, shortened: (§3)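 Plants grow to 1- to 4-leaf stage (2–18 cm) for postemergence spraying, or to 2-leaf stage for the paddy test. Formulated compound is applied. Greenhouse holding lasts 13–15 days. Response is scored visually relative to controls, 0 no effect to 100 complete control; a dash means no result.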

wheat = assay: Test B postemergence herbicide test; format: in vivo, Triticum aestivum; set-up: key to Wheat plant response rating: 0 = no effect, 100 = complete control; settings: postemergence, 500 g ai/ha; visual rating, scale 0 (no effect) to 100 (complete control)
Procedure, shortened: (§4)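 Visual ratings, 0 (no effect) to 100 (complete control), made versus controls after 13–15 d greenhouse. Paddy plants treated at 2-leaf stage; postemergence plants at 1- to 4-leaf stage, 2–18 cm tall.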

wild oat = assay: Test B postemergence herbicide test; format: in vivo, Avena fatua; settings: postemergence, visual rating, scale 0 (no effect) to 100 (complete control)
Procedure, shortened: as §4

rice [3] = assay: Test B flooded paddy test; format: in vivo, Oryza sativa; settings: 1000 g ai/ha, visual rating, scale 0 to 100 (0 no effect, 100 complete control), 13 to 15 days
Procedure, shortened: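 Formulated test chemicals went onto postemergence plants measuring 2 to 18 cm, at one to four leaves. For the paddy assay, species had reached two leaves. Scoring took place 13–15 days later by eye, relative to untreated plants, using 0 for no effect up to 100 for full control.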

[4] = tested on: small flower umbrella sedge; assay: Test B flooded paddy test; format: in vivo, Cyperus difformis; settings: 1000 g ai/ha, visual rating, scale 0 to 100 (0 no effect, 100 complete control), 13 to 15 days
Procedure, shortened: as §3

ducksalad = assay: Test B flooded paddy test; format: in vivo, Heteranthera limosa; settings: 1000 g ai/ha, visual rating, scale 0 to 100 (0 no effect, 100 complete control), 13 to 15 days
Procedure, shortened: as §3

barnyardgrass [5] = assay: Test B flooded paddy test; format: in vivo, Echinochloa crus-galli; settings: 1000 g ai/ha, visual rating, scale 0 to 100 (0 no effect, 100 complete control), 13 to 15 days
Procedure, shortened: as §3

[6] = 500 g ai/ha, visual rating 0-100, 0 no effect, 100 complete control
[7] = 125 g ai/ha, 0 to 100 scale, 0 is no effect, 100 is complete control

With `CCOC(=O)c1ccnc(NC(=O)c2cc(C(C)(C)C)nn2CC)c1` [Compound 157] the “Plant response rating, Barnyardgrass” value (barnyardgrass [1]; [6]) was 0, the “Barnyardgrass plant response rating” value (barnyardgrass [1]; 125 g ai/ha) was 0 and the “Barnyardgrass plant response rating” value (barnyardgrass [1]; 500 g ai/ha) was 20. For the same compound, the “Plant response rating, Barnyardgrass” value (barnyardgrass [1]; [7]) was 0, the “Plant response rating, Surinam Grass” value (Surinam grass; [6]) was 0 and the “Surinam Grass plant response rating” value (Surinam grass; 125 g ai/ha) was 20. The “Surinam Grass plant response rating” value (Surinam grass; 500 g ai/ha) was 20, the “Plant response rating, Surinam Grass” value (Surinam grass; [7]) was 0 and the “Plant response rating, Cocklebur” value (cocklebur; [6]) was 20. For the same compound, the “Cocklebur plant response rating” value (cocklebur; 125 g ai/ha) was 10, the “Cocklebur plant response rating” value (cocklebur; 500 g ai/ha) was 90 and the “Plant response rating, Cocklebur” value (cocklebur; [7]) was 0. For the same compound, the “Plant response rating, Corn” value (corn; [6]) was 0, the “Corn plant response rating” value (corn; 125 g ai/ha) was 0 and the “Corn plant response rating” value (corn; 500 g ai/ha) was 0. For the same compound, the “Plant response rating, Corn” value (corn; [7]) was 0, the “Plant response rating, Crabgrass, Large” value (large crabgrass; [6]) was 20 and the “Crabgrass, Large plant response rating” value (large crabgrass; 125 g ai/ha) was 0. The “Crabgrass, Large plant response rating” value (large crabgrass; 500 g ai/ha) was 20, the “Plant response rating, Crabgrass, Large” value (large crabgrass; [7]) was 0 and the “Plant response rating, Foxtail, Giant” value (giant foxtail; [6]) was 0. The “Foxtail, Giant plant response rating” value (giant foxtail; 125 g ai/ha) was 30, the “Foxtail, Giant plant response rating” value (giant foxtail; 500 g ai/ha) was 40 and the “Plant response rating, Foxtail, Giant” value (giant foxtail; [7]) was 0. The “Plant response rating, Lambsquarters” value (lambsquarters; [6]) was 30, the “Lambsquarters plant response rating” value (lambsquarters; 125 g ai/ha) was 20 and the “Lambsquarters plant response rating” value (lambsquarters; 500 g ai/ha) was 70. For the same compound, the “Plant response rating, Lambsquarters” value (lambsquarters; [7]) was 0, the “Plant response rating, Morningglory” value (morningglory; [6]) was 40 and the “Morningglory plant response rating” value (morningglory; 125 g ai/ha) was 0. The “Morningglory plant response rating” value (morningglory; 500 g ai/ha) was 30, the “Plant response rating, Morningglory” value (morningglory; [7]) was 0 and the “Plant response rating, Pigweed” value (pigweed; [6]) was 40. The “Pigweed plant response rating” value (pigweed; 125 g ai/ha) was 40, the “Pigweed plant response rating” value (pigweed; 500 g ai/ha) was 80 and the “Plant response rating, Pigweed” value (pigweed; [7]) was 0. The “Plant response rating, Rice” value (rice [2]; [6]) was 0, the “Plant response rating, Rice” value (rice [2]; [7]) was 0 and the “Plant response rating, Velvetleaf” value (velvetleaf; [6]) was 0. The “Velvetleaf plant response rating” value (velvetleaf; 125 g ai/ha) was 50, the “Velvetleaf plant response rating” value (velvetleaf; 500 g ai/ha) was 80 and the “Plant response rating, Velvetleaf” value (velvetleaf; [7]) was 0. The “Blackgrass plant response rating” value (blackgrass; 125 g ai/ha) was 10, the “Blackgrass plant response rating” value (blackgrass; 500 g ai/ha) was 20 and the “Wheat plant response rating” value (wheat) was 20. For the same compound, the “Oat, Wild plant response rating” value (wild oat; 125 g ai/ha) was 10, the “Oat, Wild plant response rating” value (wild oat; 500 g ai/ha) was 40 and the “Rice plant response rating” value (rice [3]) was 30. The “Sedge, Umbrella plant response rating” value [4] was 40, the “Ducksalad plant response rating” value (ducksalad) was 0 and the “Barnyardgrass plant response rating” value (barnyardgrass [5]) was 20.
